Data as given in patent publication US7572765B2, “Conformationally constrained parathyroid hormone (PTH) analogs” (The General Hospital Corporation, priority 2001, dated 2009).
Square brackets hold non-standard residues; d marks the D form. Ends that are not written are not given here. Peptide text beside a SMILES is read from it. hArg = N=C(N)NCCCC[C@H](N)C(=O)O; Nle = CCCC[C@H](N)C(=O)O; Aib = CC(C)(N)C(=O)O

How the values were obtained:
human P1R [1] = biological target: T1, human P1R (Homo sapiens, UniProt Q03431); test: cAMP stimulation in HKRK-B28 cells; type: cell-based; conditions: for cAMP EMax(obs.): basal 4.0 ± 0.1 pmole/well not subtracted
T1 construct: expressed in transfected cells; host or cells: HKRK-B28 (porcine kidney LLC-PK1, stably transfected)
T1 sequence (Q03431 27-593): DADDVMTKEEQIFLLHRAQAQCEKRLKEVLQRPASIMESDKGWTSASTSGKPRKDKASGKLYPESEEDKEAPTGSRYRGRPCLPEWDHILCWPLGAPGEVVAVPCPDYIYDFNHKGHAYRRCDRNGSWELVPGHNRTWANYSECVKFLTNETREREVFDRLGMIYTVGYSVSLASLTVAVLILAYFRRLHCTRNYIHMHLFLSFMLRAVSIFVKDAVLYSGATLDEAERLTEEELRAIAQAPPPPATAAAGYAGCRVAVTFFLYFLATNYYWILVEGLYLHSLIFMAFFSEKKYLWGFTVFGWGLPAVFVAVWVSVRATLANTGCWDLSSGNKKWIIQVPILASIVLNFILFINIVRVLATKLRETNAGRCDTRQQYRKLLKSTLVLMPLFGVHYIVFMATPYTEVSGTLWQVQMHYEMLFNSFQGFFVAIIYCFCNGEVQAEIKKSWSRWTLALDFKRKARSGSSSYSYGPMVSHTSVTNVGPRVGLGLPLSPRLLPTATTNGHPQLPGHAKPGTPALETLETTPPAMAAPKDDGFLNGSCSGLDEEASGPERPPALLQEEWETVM
Procedure: (§1) Cell Culture. The cell line HKRK-B28 (Takasu, H., et al., J. Bone Miner. Res. 14:11-20 (1999)) was derived from the porcine kidney cell line, LLC-PK1 by stable transfection with plasmid DNA encoding the human P1R and expresses ˜280,000 receptors per cell. These cells, as well as COS-7 cells and SaOS-2-B10 cells, were cultured at […] in T-75 flasks ([…]) in Dulbecco's modified Eagle's medium (DMEM) supplemented with fetal bovine serum (10%), penicillin G (20 units/ml), streptomycin sulfate (20 μg/ml) and amphotericin B (0.05 μg/ml) in a humidified atmosphere containing 5% CO2. Stock solutions of EGTA/trypsin and antibiotics were from GIBCO; fetal bovine serum was from Hyclone Laboratories (Logan, Utah). COS-7 cells sub-cultured in 24-well plates were transfected with plasmid DNA (200 ng per well) encoding the wild-type human P1R or truncated human P1R deleted for residues (24-181) (Shimizu, M., et al., J. Biol. Chem. 275:21836-21843 (2000)) that was purified by cesium chloride/ethidium bromide density gradient centrifugation, and FuGENE 6 transfection reagent (Roche Indianapolis Ind.) according to the manufacturer's recommended procedure. All cells, in 24-well plates, were treated with fresh media and shifted to 33° C. for 12 to 24 h prior to assay.
(§2) cAMP Stimulation. Stimulation of cells with peptide analogs was performed in 24-well plates. Cells were rinsed with 0.5 mL of binding buffer (50 mM Tris-HCI, […], 5 mM KCl, 2 mM CaCl2, 5% heat-inactivated horse serum, 0.5% fetal bovine serum, adjusted to pH 7.5 with HCl) and treated with 200 μL of cAMP assay buffer (Delbecco's modified Eagle's medium containing 2 mM 3-isobutyl-1-methylxanthine, 1 mg/mL bovine serum albumin, 35 mM Hepes-NaOH, pH 7.4) and 100 μL of binding buffer containing varying amounts of peptide analog (final volume=300 μL). The medium was removed after incubation for 30 to 60 minutes at room temperature, and the cells were frozen on dry ice, lysed with 0.5 mL 50 mM HCl, and refrozen ([…]). The cAMP content of the diluted lysate was determined by radioimmunoassay. The EC50 response values were calculated using nonlinear regression (see below).
(§3) Data Calculation. Calculations were performed using Microsoft® Excel. Nonlinear regression analyses of binding and cAMP dose-response data were performed using the four-parameter equation: yp=Min+[(Max−Min)/(1+(IC50/x)^slope)]. The Excel Solver function was utilized for parameter optimization, as described previously (Carter, P. H., et al., Endocrinology 140: 4972-4981 (1999); Bowen, W. P., and Jerman, J. C., Trends in Pharmacol. Sci. 16: 413-417 (1995)). Differences between paired data sets were statistically evaluated using a one-tailed Student's t-test, assuming unequal variances for the two sets.

human P1R [2] = biological target: T1, human P1R; test: Competition binding in HKRK-B28 cells; conditions: for binding of radiolabeled peptide to HKRK-B28 cells (in words): direct binding of the radioligand
Procedure: as §1
Competition Binding. Binding reactions were performed with HKRK-B28 cells or in COS-7 cells in 24-well plates. The cells were rinsed with 0.5 mL of binding buffer, and then treated successively with 100 μL binding buffer, 100 μL of binding buffer containing various amounts of unlabeled competitor ligand, and 100 μL of binding buffer containing ca. 100,000 cpm of ^125I-[M]PTH(1-21) or ^125I-[Aib^1,3,M]PTH(1-21)} (ca. 26 fmol; final volume=300 μL). Incubations were 4 to 6 h at 4° C., at which time near equilibrium conditions were attained. Cells were then placed on ice, the binding medium was removed, and the monolayer was rinsed three times with 0.5 mL of cold binding buffer. The cells were subsequently lysed with 0.5 mL […] and counted for radioactivity. For each tracer and in each experiment, the non-specific binding was determined as the radioactivity that bound in the presence of the same unlabeled peptide at a concentration of 1 μM, and was ˜1% of total radioactivity added for each tracer. The maximum specific binding (B0) was the total radioactivity bound in the absence of competing ligand, corrected for nonspecific binding, and for each tracer, ranged from 8% to 20% of the total radioactivity added. Nonlinear regression was used to calculate binding IC50 values (see below). Scatchard transformations of homologous competition binding data derived from studies with 26 fmol of ^125I-[Aib^1,3,M]PTH(1-21) were employed for estimations of apparent equilibrium dissociation constant (kDapps) and total number of ligand binding sites (Bmax), assuming a single class of binding sites and equal affinities of the iodinated and non iodinated ligand.
as §3
The P1R-binding properties of these analogs were assayed in competition studies performed in […]. In previous studies, PTH(1-14) binding could not be detected using ^125I-PTH(1-34) and related N-terminally intact and relatively unmodified radioligands (Luck, M. D., et al., Molecular Endocrinology 13:670-680 (1999)). […]

[3] = biological target: T2, P1R-delNt, truncated human P1R deleted for residues (24-181) (Homo sapiens, UniProt Q03431); test: cAMP stimulation in COS-7 cells expressing hP1R-delNt; type: cell-based; conditions: hP1R-delNT
T2 construct: expressed in transfected cells; host or cells: COS-7 (transient, FuGENE 6)
T2 sequence (Q03431 with tags, fused parts or gaps limits assumed): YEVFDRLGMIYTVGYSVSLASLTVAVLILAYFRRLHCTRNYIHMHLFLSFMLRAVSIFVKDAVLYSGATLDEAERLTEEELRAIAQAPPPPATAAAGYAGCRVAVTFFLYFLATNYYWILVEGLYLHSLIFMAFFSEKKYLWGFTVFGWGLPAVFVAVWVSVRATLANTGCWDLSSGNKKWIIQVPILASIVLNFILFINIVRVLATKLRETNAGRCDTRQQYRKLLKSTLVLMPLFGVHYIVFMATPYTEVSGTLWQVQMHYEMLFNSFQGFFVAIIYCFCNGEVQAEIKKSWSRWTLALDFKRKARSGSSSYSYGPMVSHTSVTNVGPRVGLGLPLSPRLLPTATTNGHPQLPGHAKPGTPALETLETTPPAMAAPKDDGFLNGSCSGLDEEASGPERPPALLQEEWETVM
Procedure: as §1, §2, §3
The possibility that the activity-enhancing effects of the Aib substitutions at positions 1 and 3 were mediated through the juxtamembrane (J) region of the receptor was investigated in COS-7 cells transiently transfected with P1R-delNt. P1R-delNt was a truncated P1R that lacked most of the amino-terminal extracellular domain.

[4] = biological target: T2, P1R-delNt, truncated human P1R deleted for residues (24-181); test: Competition binding in COS-7 cells expressing hP1R-delNt; conditions: direct binding of the radioligand
[5] = HKRK-B28 cells, tracer 125I-[M]PTH(1-21)amide, 4 h at 4° C., N.B. = no binding detected at 10 μm peptide

EC50 (human P1R [1])	cAMP EMax(obs.) (human P1R [1])	Binding IC50 (human P1R [2]; [5])	Compound	other results
66 µM	169 ± 18 pmole/well	N.B.	CSCC[C@H](NC(=O)[C@H](CC(C)C)NC(=O)[C@H](CCC(N)=O)NC(=O)C(C)(C)NC(=O)[C@H](CCC(=O)O)NC(=O)[C@H](C)NC(=O)[C@@H](NC(=O)[C@H](C)N)C(C)C)C(=O)N[C@@H](Cc1c[nH]cn1)C(=O)N[C@@H](CCC(N)=O)C(=O)N[C@@H](CCCCNC(=N)N)C(=O)N[C@@H](C)C(=O)N[C@@H](CCCCN)C(=O)N[C@@H](Cc1c[nH]c2ccccc12)C(N)=O [Aib-5] (H-AVAE[Aib]QLMHQ[hArg]AKW-NH2)	
	34 ± 7 pmole/well	N.B.	CC[C@H](C)[C@H](NC(=O)[C@H](CCC(=O)O)NC(=O)[C@H](C)NC(=O)[C@@H](NC(=O)[C@H](C)N)C(C)C)C(=O)N[C@@H](CCC(N)=O)C(=O)N[C@@H](CC(C)C)C(=O)NC(C)(C)C(=O)N[C@@H](Cc1c[nH]cn1)C(=O)N[C@@H](CCC(N)=O)C(=O)N[C@@H](CCCCNC(=N)N)C(=O)N[C@@H](C)C(=O)N[C@@H](CCCCN)C(=O)N[C@@H](Cc1c[nH]c2ccccc12)C(N)=O [Aib-8] (H-AVAEIQL[Aib]HQ[hArg]AKW-NH2)	
	51 ± 8 pmole/well	N.B.	CC[C@H](C)[C@H](NC(=O)[C@H](CCC(=O)O)NC(=O)[C@H](C)NC(=O)[C@@H](NC(=O)[C@H](C)N)C(C)C)C(=O)N[C@@H](CCC(N)=O)C(=O)N[C@@H](CC(C)C)C(=O)N[C@@H](CCSC)C(=O)NC(C)(C)C(=O)N[C@@H](CCC(N)=O)C(=O)N[C@@H](CCCCNC(=N)N)C(=O)N[C@@H](C)C(=O)N[C@@H](CCCCN)C(=O)N[C@@H](Cc1c[nH]c2ccccc12)C(N)=O [Aib-9] (H-AVAEIQLM[Aib]Q[hArg]AKW-NH2)	
67 µM	96 ± 18 pmole/well	N.B.	CC[C@H](C)[C@H](NC(=O)[C@H](CCC(=O)O)NC(=O)[C@H](C)NC(=O)[C@@H](NC(=O)[C@H](C)N)C(C)C)C(=O)N[C@@H](CCC(N)=O)C(=O)N[C@@H](CC(C)C)C(=O)N[C@@H](CCSC)C(=O)N[C@@H](Cc1c[nH]cn1)C(=O)N[C@@H](CCC(N)=O)C(=O)NC(C)(C)C(=O)N[C@@H](C)C(=O)N[C@@H](CCCCN)C(=O)N[C@@H](Cc1c[nH]c2ccccc12)C(N)=O [Aib-11] (H-AVAEIQLMHQ[Aib]AKW-NH2)	
> 10 µM	10 ± 1 pmole/well	did not bind detachably	CC[C@H](C)[C@H](NC(=O)[C@H](CCC(=O)O)NC(=O)C(C)(C)NC(=O)[C@@H](NC(=O)C(C)(C)N)C(C)C)C(=O)N[C@@H](CCC(N)=O)C(=O)N[C@@H](CC(C)C)C(=O)N[C@@H](CCSC)C(=O)N[C@@H](Cc1c[nH]cn1)C(N)=O [[Aib^1,3]PTH(1-9)] (H-[Aib]V[Aib]EIQLMH-NH2)	stimulation of cAMP accumulation (in words) (human P1R [1]): Little or no stimulation of cAMP accumulation; Binding IC50 (human P1R [2]; HKRK-B28 cells, tracer 125I-[M]PTH(1-21)amide, 4 h at 4° C., N.B. = no binding detected at 10 μm peptide, listed as [Aib^1,3]PTH (1-9)): N.B.
0.1 ± 0.02 µM			CC[C@H](C)[C@H](NC(=O)[C@H](CCC(=O)O)NC(=O)[C@H](C)NC(=O)[C@@H](NC(=O)[C@H](C)N)C(C)C)C(=O)N[C@@H](CCC(N)=O)C(=O)N[C@@H](CC(C)C)C(=O)N[C@@H](CCSC)C(=O)N[C@@H](Cc1cnc[nH]1)C(=O)N[C@@H](CCC(N)=O)C(=O)N[C@@H](CCCCN=C(N)N)C(=O)N[C@@H](C)C(=O)N[C@@H](CCCCN)C(=O)N[C@@H](Cc1c[nH]c2ccccc12)C(N)=O [[M]PTH(1-14), [Ala^3,12,Gln^10,Har^11,Trp^14]PTH(1-14)amide, reference compound] (H-AVAEIQLMHQ[hArg]AKW-NH2)	EC50 [3]: 0.04 ± 0.002 µM; IC50 (human P1R [2]; [5]): 1.3e-05 M
			^125I-[Ala^3,12Nle^8Gln^10,Har^11,Trp^14,Tyr^15]PTH(1-15)amide (AVAEIQL[Nle]HQ[hArg]AKWY-NH2; also: 125I-labeled, place not given here) [reference compound]	binding of radiolabeled peptide to HKRK-B28 cells (in words) (human P1R [2]): did not bind detectably
			^125I-[M]PTH(1-21): radioiodinated [M]PTH(1-21) tracer radioligand (AVAEIQL[Nle]HQ[hArg]AKWLASVRRY-NH2; also: 125I radiolabel, position not given here) [reference compound]	binding of radioligand to P1R-delNt (in words) [4]: did not bind detectably; binding of radiolabeled peptide to HKRK-B28 cells (in words) (human P1R [2]): bound adequately
